Test results published in patent US10888549B2, “Pharmaceutical agents targeting cancer stem cells” (THE JOHNS HOPKINS UNIVERSITY, priority 2016, dated 2021).

Legend:
urothelial CSCs = assay: Sphere formation assay (CSC properties); type: cell-based, human
Experimental: Sphere formation was induced by culturing cells (2×10^4/well) in DMEM/Ham's F12 50/50 Mix (Mediatech) supplemented with B-27 (Life Technologies), 20 ng/mL FGF-basic (Peprotech), 20 ng/mL EGF (Peprotech). Cell culture was performed in ultra-low attachment 6 well plates (Corning, Lowell, USA) for 10 days. The medium was replaced every other day. Sphere formation was evaluated using the inverted phase-contrast microscope, and single sphere with a diameter larger than 100 μm was counted using NIS-Elements Microscope Imaging Software. To redifferentiate spheres, spheres were plated in standard growth medium with 10% FBS in dishes supporting cell attachment, and incubated for 7 days. For self-renewal assay, primary spheres were collected by gentle centrifugation (5 min at 400×g), dissociated with Stempro Accutase Cell Dissociation Reagent (Life Technologies), and mechanically disrupted with a pipette. The cell suspension was sieved through 40 μm cell strainer cap filter to achieve a single-cell suspension, and then equal numbers of alive cells were plated in ultralow attachment plates to generate the second spheres. Again, spheres were counted on day 14 and digested to generate the third Spheres. All the experiments were performed in triplicate and repeated at least three times.

MIRLET7BHG promoter = assay: Bisulfite sequencing of let-7 host gene promoter; type: cell-based, human; conditions: bladder cancer cells
Experimental: Cell pellets were digested with 1% sodium dodecyl sulfate and 50 μg/mL proteinase K (Roche, Nutley, USA) at 48° C. overnight. Isolation of genomic DNA from cell lines was performed with the phenol-chloroform extraction protocol followed by ethanol precipitation. Bisulfite treatment was conducted using an EpiTect Bisulfite Kit (QIAGEN, Valencia, USA), and was subsequently amplified via PCR using primers as shown in the following table. PCR products were purified using the QIAquick Gel Extraction kit (Qiagen), and sequenced by Genewiz DNA sequencing service (Genewiz, South Plainfield, USA). The data were analyzed using the Sequence Scanner v1.0 software (Life technologies). A methylation frequency of ≥50% of total CpG sites within the amplified region was considered “methylation-positive”. For demethylation, cells (1×10^6/T-75 flask) were treated with […] of the demethylating agent 5-Aza-dC (Sigma) dissolved in 50% acetic acid or were mock-treated with phosphate buffered saline (PBS) including the same amount of acetic acid every 24 hours for 5 days. When combined with the histone deacetylase inhibitor TSA (Sigma), 300 nmol/L TSA was added to the medium for the final 24 hours.

[1] = Body weight of treated mice; type: in vivo; conditions: compared with control
Experimental: For celecoxib and/or VP treatment, celecoxib (5 mg/kg) was administered via intraperitoneal (i.p.) injection once a day (17), and VP (50 mg/kg) was administered via i.p. every other day (18). EP4 antagonist ONO-AE3-208 (10 mg/kg) was administered via i.p. once a day (19). Control was applied with same volume (100 μL per injection) of 10% dimethyl sulphoxide in […] (Sigma-Aldrich). For GEM and CDDP (GC) treatment (i.p.), CDDP (6 mg/kg) was only applied after the first GEM (60 mg/kg) treatment on day 2, followed by three consecutive treatments of GEM on day 5, 8 and 11 (17). The next cycle was started on day 18, and the treatment was continued until tumor reached 2 cm in diameter. For erlotinib treatment, the mice were treated once a day, 6 days per week, by oral gavage with erlotinib (100 mg/kg) or control (PBS containing 0.5% methyl cellulose (Sigma-Aldrich) and 0.1% TWEEN 80) (20). Tumor size was measured at least every three days. […] To establish xenograft model with acquired resistance to erlotinib, erlotinib sensitive 5637 cells were injected subcutaneously into the both flanks of 4-5 week-old NSG mice, and the tumors were consecutively passaged from NSG mice treated with erlotinib and celecoxib until the development of refractory tumors. […]

SMILES: Cc1ccc(-c2cc(C(F)(F)F)nn2-c2ccc(S(N)(=O)=O)cc2)cc1 [celecoxib, Celecoxib]
- sphere formation (urothelial CSCs; COX2 inhibitor added to erlotinib, basal-type cells, 72 hours): impaired
- sphere formation / sphere-forming ability (urothelial CSCs; agent alone, bladder cancer cells): repressed
- promoter methylation of the let-7 host gene (MIRLET7BHG promoter): demethylated
- body weight loss of mice [1]: did not observe body weight loss
